From US11617777B2, “Cytotoxic and anti-mitotic compounds, and methods of using the same” (ZYMEWORKS BC INC., priority 2013, dated 2023)
Like-named read-outs stand apart in the source and are kept apart here.

Test system: Jurkat cells
Assay: Cytotoxicity of compounds, CellTiter-Glo
Type: cell-based, Human
Conditions: Homo sapiens, Jurkat, read-out: EC50
In short: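 HCC1954 plated at 2500 cells/100 uL and attached overnight; Jurkat plated at 2500 cells/100 uL on the day of dosing. Cells exposed to 8-step 1:3 compound titrations for three nights at 37° C./5% CO2, in triplicate. CellTiter-Glo luminescence converted to % cytotoxicity versus medium-only control; EC50 by three-parameter nonlinear regression.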

[1] = Table 6, Compound Cytotoxicity on Jurkat
[2] = Table 7, Cytotoxicity on Jurkat
[3] = Table 3, Cytotoxicity of Compounds on Jurkat Cells

With `CN[C@H](C(=O)N[C@H](C(=O)N(C)[C@H](/C=C(\C)C(=O)NS(=O)(=O)Cc1ccccc1)C(C)C)C(C)(C)C)C(C)(C)c1ccc(OCCO)cc1` [Compound 94, (S,E)-N-(benzylsulfonyl)-4-((S)-2-((S)-3-(4-(2-hydroxyethoxy)phenyl)-3-methyl-2-(methylamino)butanamido)-N,3,3-trimethylbutanamido)-2,5-dimethylhex-2-enamide] the EC50 [1] was 1.67 nM.
In the case of `CN[C@H](C(=O)N[C@H](C(=O)N(C)[C@H](/C=C(\C)C(=O)NS(=O)(=O)Cc1ccccc1)C(C)C)C(C)(C)C)C(C)(C)c1ccc(OCCSC(C)=O)cc1` [Compound 95, S-2-(4-((S)-4-((S)-1-(((S,E)-2,5-dimethyl-6-oxo-6-(benzylsulfonamido)hex-4-en-3-yl)(methyl)amino)-3,3-dimethyl-1-oxobutan-2-ylamino)-2-methyl-3-(methylamino)-4-oxobutan-2-yl)phenoxy)ethylethanethioate], the EC50 [1] is reported as 0.288 nM.
`CN[C@H](C(=O)N[C@H](C(=O)N(C)[C@H](/C=C(\C)C(=O)NS(=O)(=O)c1ccc(N)c2c1CCCC2)C(C)C)C(C)(C)C)C(C)(C)c1ccccc1` [Compound 110, (S,E)-N-(4-amino-5,6,7,8-tetrahydronaphthalen-1-ylsulfonyl)-2,5-dimethyl-4-((S)—N,3,3-trimethyl-2-((S)-3-methyl-2-(methylamino)-3-phenylbutanamido)butanamido)hex-2-enamide] gave an EC50 [1] of 0.031 nM and an EC50 [2] of 0.031 nM.
Work on `CN[C@H](C(=O)N[C@H](C(=O)N(C)[C@H](/C=C(\C)C(=O)NS(=O)(=O)Cc1ccc(Cl)cc1)C(C)C)C(C)(C)C)C(C)(C)c1ccccc1` [Compound 66, (S,E)-N-(4-chlorobenzylsulfonyl)-2,5-dimethyl-4-((S)—N,3,3-trimethyl-2-((S)-3-methyl-2-(methylamino)-3-phenylbutanamido)butanamido)hex-2-enamide] yielded an EC50 [1] of 0.145 nM.
In the case of `CN[C@@H](C(=O)N[C@H](C(=O)N(C)[C@H](/C=C(\C)C(=O)NS(=O)(=O)Cc1ccccc1)C(C)C)C(C)(C)C)C(C)(C)c1cccc(OC)c1` [Compound 92, (S,E)-N-(benzylsulfonyl)-4-((S)-2-((R)-3-(3-methoxyphenyl)-3-methyl-2-(methylamino)butanamido)-N,3,3-trimethylbutanamido)-2,5-dimethylhex-2-enamide], the EC50 [1] is reported as 0.485 nM.
`CN[C@H](C(=O)N[C@H](C(=O)N(C)[C@H](/C=C(\C)C(=O)NS(=O)(=O)c1ccc(N)c(C)c1C)C(C)C)C(C)(C)C)C(C)(C)c1ccccc1` [Compound 109, (S,E)-N-(4-amino-2,3-dimethylphenylsulfonyl)-2,5-dimethyl-4-((S)—N,3,3-trimethyl-2-((S)-3-methyl-2-(methylamino)-3-phenylbutanamido)butanamido) hex-2-enamide] gave an EC50 [1] of 0.087 nM and an EC50 [2] of 0.087 nM.
`CN[C@H](C(=O)N[C@H](C(=O)N(C)[C@H](/C=C(\C)C(=O)NS(=O)(=O)Cc1ccccc1C)C(C)C)C(C)(C)C)C(C)(C)c1ccccc1` [Compound 64, (S,E)-2,5-dimethyl-N-(2-methylbenzylsulfonyl)-4-((S)—N,3,3-trimethyl-2-((S)-3-methyl-2-(methylamino)-3-phenylbutanamido)butanamido)hex-2-enamide] gave an EC50 [1] of 0.138 nM.
`CN[C@H](C(=O)N[C@H](C(=O)N(C)[C@H](/C=C(\C)C(=O)NS(=O)(=O)Cc1ccc(Br)cc1)C(C)C)C(C)(C)C)C(C)(C)c1ccccc1` [Compound 68, (S,E)-N-(4-bromobenzylsulfonyl)-2,5-dimethyl-4-((S)—N,3,3-trimethyl-2-((S)-3-methyl-2-(methylamino)-3-phenylbutanamido)butanamido)hex-2-enamide] showed an EC50 [1] of 0.337 nM.
Work on `CN[C@H](C(=O)N[C@H](C(=O)N(C)[C@H](/C=C(\C)C(=O)NS(=O)(=O)Cc1ccccc1)C(C)C)C(C)(C)C)C(C)(C)c1ccc(OCCN)cc1` [Compound 96, (S,E)-4-((S)-2-((S)-3-(4-(2-aminoethoxy)phenyl)-3-methyl-2-(methylamino)butanamido)-N,3,3-trimethylbutanamido)-N-(benzylsulfonyl)-2,5-dimethylhex-2-enamide] yielded an EC50 [1] of 10.3 nM.
With `CN[C@H](C(=O)N[C@H](C(=O)N(C)[C@H](/C=C(\C)C(=O)NS(=O)(=O)c1cccnc1)C(C)C)C(C)(C)C)C(C)(C)c1ccccc1` [Compound 49, (S,E)-2,5-dimethyl-N-(pyridin-3-ylsulfonyl)-4-((S)—N,3,3-trimethyl-2-((S)-3-methyl-2-(methylamino)-3-phenylbutanamido)butanamido)hex-2-enamide] the EC50 [3] was 2.5 nM.
In the case of `CN[C@H](C(=O)N[C@H](C(=O)N(C)[C@H](/C=C(\C)C(=O)NS(=O)(=O)c1ccccc1)C(C)C)C(C)(C)C)C(C)(C)c1ccccc1` [Compound 25, (S,E)-2,5-dimethyl-N-(phenylsulfonyl)-4-((S)—N,3,3-trimethyl-2-((S)-3-methyl-2-(methylamino)-3-phenylbutanamido)butanamido)hex-2-enamide], the EC50 [3] is reported as 0.05 nM.
With `CN[C@H](C(=O)N[C@H](C(=O)N(C)[C@H](/C=C(\C)C(=O)NS(=O)(=O)CCc1ccc([N+](=O)[O-])cc1)C(C)C)C(C)(C)C)C(C)(C)c1ccccc1` [Compound 73, (S,E)-2,5-dimethyl-N-(4-nitrophenethylsulfonyl)-4-((S)—N,3,3-trimethyl-2-((S)-3-methyl-2-(methylamino)-3-phenylbutanamido)butanamido)hex-2-enamide] the EC50 [1] was 2.68 nM.
Work on `CN[C@H](C(=O)N[C@H](C(=O)N(C)[C@H](/C=C(\C)C(=O)NS(=O)(=O)Cc1cccc(OC(F)(F)F)c1)C(C)C)C(C)(C)C)C(C)(C)c1ccccc1` [Compound 103, (S,E)-2,5-dimethyl-N-(3-(trifluoromethoxy)benzylsulfonyl)-4-((S)—N,3,3-trimethyl-2-((S)-3-methyl-2-(methylamino)-3-phenylbutanamido)butanamido)hex-2-enamide] yielded an EC50 [1] of 0.209 nM.
Compound `CN[C@H](C(=O)N[C@H](C(=O)N(C)[C@H](/C=C(\C)C(=O)NS(=O)(=O)Cc1ccccc1)C(C)C)C(C)(C)C)C(C)(C)c1ccc(-c2ccc(OC)cc2)cc1` [Compound 88, (S,E)-N-(benzylsulfonyl)-4-((S)-2-((S)-3-(4′-methoxybiphenyl-4-yl)-3-methyl-2-(methylamino)butanamido)-N,3,3-trimethylbutanamido)-2,5-dimethylhex-2-enamide] has an EC50 [1] of 0.641 nM.
`CN[C@H](C(=O)N[C@H](C(=O)N(C)[C@H](/C=C(\C)C(=O)NS(=O)(=O)c1ccccc1N)C(C)C)C(C)(C)C)C(C)(C)c1ccccc1` [Compound 98, (S,E)-N-(2-aminophenylsulfonyl)-2,5-dimethyl-4-((S)—N,3,3-trimethyl-2-((S)-3-methyl-2-(methylamino)-3-phenylbutanamido)butanamido)hex-2-enamide] was tested, and the EC50 [1] was 0.077 nM.
